Experiment [1] addresses T1, Vitamin D3 receptor (Homo sapiens) (UniProt P11473).
T1 sequence (whole entry): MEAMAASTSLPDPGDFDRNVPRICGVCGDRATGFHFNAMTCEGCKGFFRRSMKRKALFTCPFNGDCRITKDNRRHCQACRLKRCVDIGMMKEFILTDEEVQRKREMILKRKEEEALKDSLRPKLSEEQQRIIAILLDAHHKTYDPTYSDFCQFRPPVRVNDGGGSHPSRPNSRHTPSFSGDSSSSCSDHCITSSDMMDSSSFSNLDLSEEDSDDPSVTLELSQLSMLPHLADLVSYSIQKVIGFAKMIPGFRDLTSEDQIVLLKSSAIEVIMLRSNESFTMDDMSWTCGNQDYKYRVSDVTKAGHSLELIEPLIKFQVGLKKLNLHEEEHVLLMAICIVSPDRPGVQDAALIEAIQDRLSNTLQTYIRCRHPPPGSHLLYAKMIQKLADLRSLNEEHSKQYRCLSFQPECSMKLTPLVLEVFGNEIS
Nature of the experiment: Binding affinity to full-length VDR (unknown origin) at 1 uM by fluorescence polarization assay relative to control.

Experiment [2] relates to LX-2. Nature of the experiment: Inhibition of HSC activation in TGF-beta1-treated human LX2 cells assessed as decrease in collagen-I level at 0.5 uM incubated for 24 hrs by Western blot analysis. The experiment is classed as functional, cell-based.
Experiment [3] concerns LX-2. Kind of experiment: Inhibition of HSC activation in TGF-beta1-treated human LX2 cells assessed as decrease in ACTA2 mRNA level at 0.5 uM incubated for 24 hrs by qPCR analysis. Type of experiment: functional, cell-based.
For experiment [4], the system named is LX-2. Nature of the experiment: Inhibition of HSC activation in TGF-beta1-treated human LX2 cells assessed as decrease in COL1A1 mRNA level at 0.5 uM incubated for 24 hrs by qPCR analysis. Type of experiment: functional, cell-based.
The subject of experiment [5] is LX-2. Kind of experiment: Inhibition of HSC activation in TGF-beta1-treated human LX2 cells assessed as decrease in alpha-SMA level at 0.5 uM incubated for 24 hrs by Western blot analysis. The experiment is classed as functional, cell-based.
In experiment [6] the target is T1, Vitamin D3 receptor (Homo sapiens). Kind of experiment: Agonist activity at VDR in human LX2 cells assessed as increase in CYP24A1 level at 0.5 uM by qRT-PCR analysis. Conditions: filed as agonist. The experiment is classed as cell-based.
The test system of experiment [7] is LX-2. Kind of experiment: Inhibition of HSC activation in TGF-beta1-treated human LX2 cells harboring VDR siRNA assessed as decrease in collagen-I level at 0.5 uM incubated for 24 hrs by Western blot analysis. Type of experiment: functional, cell-based.
In experiment [8] the test system is LX-2. Kind of experiment: Inhibition of HSC activation in TGF-beta1-treated human LX2 cells harboring VDR siRNA assessed as decrease in alpha-SMA level at 0.5 uM incubated for 24 hrs by Western blot analysis. Type of experiment: functional, cell-based.
For experiment [9], the target named is T1, Vitamin D3 receptor (Homo sapiens). Kind of experiment: Agonist activity at human VDR in HEK293 cells co-expressing 3-Luc/RXRalpha assessed as transcriptional activity at 0.5 uM by dual luciferase reporter assay. The experiment is classed as cell-based. To be noted: filed as agonist.
Experiment [10] concerns Mus musculus. Nature of the experiment: Anti-fibrotic activity in CCl4-induced hepatic fibrosis C57BL/6 mouse model assessed as reduction in TBA level at 500 ug/kg, po administered daily for 2 weeks. Type of experiment: functional, organism-based. Conditions: […].
Experiment [11] relates to Mus musculus. Nature of the experiment: Anti-fibrotic activity in CCl4-induced hepatic fibrosis C57BL/6 mouse model assessed as decrease in Fn mRNA level in liver at 500 ug/kg, po administered daily for 2 weeks by qPCR analysis. Conditions: […]. The experiment is classed as functional, organism-based.
Experiment [12] has as its system Mus musculus. Kind of experiment: Anti-fibrotic activity in CCl4-induced hepatic fibrosis C57BL/6 mouse model assessed as reduction in collagen deposition in liver at 500 ug/kg, po administered daily for 2 weeks by H and E/Masson's trichrome staining based analysis. Type of experiment: functional, organism-based. To be noted: […].
Experiment [13] relates to Mus musculus. Nature of the experiment: Anti-fibrotic activity in CCl4-induced hepatic fibrosis C57BL/6 mouse model assessed as reduction in IL-1beta level in liver at 500 ug/kg, po administered daily for 2 weeks by ELISA. The experiment is classed as functional, organism-based. Conditions: […].
For experiment [14], the system named is Mus musculus. Nature of the experiment: Anti-fibrotic activity in CCl4-induced hepatic fibrosis C57BL/6 mouse model assessed as reduction in ALT level at 500 ug/kg, po administered daily for 2 weeks. Conditions: […]. The experiment is classed as functional, organism-based.
For experiment [15], the system named is Mus musculus. Nature of the experiment: Anti-fibrotic activity in CCl4-induced hepatic fibrosis C57BL/6 mouse model assessed as prevention of serum calcium level elevation at 500 ug/kg, po administered daily for 2 weeks. Type of experiment: functional, organism-based.
For experiment [16], the system named is Mus musculus. Kind of experiment: Anti-fibrotic activity in CCl4-induced hepatic fibrosis C57BL/6 mouse model assessed as reduction in hepatic lesion in liver at 500 ug/kg, po administered daily for 2 weeks by H and E/Masson's trichrome staining based analysis. Type of experiment: functional, organism-based. To be noted: […].
Experiment [17] has as its system Mus musculus. Nature of the experiment: Anti-fibrotic activity in CCl4-induced hepatic fibrosis C57BL/6 mouse model assessed as reduction in AST level at 500 ug/kg, po administered daily for 2 weeks. Type of experiment: functional, organism-based. To be noted: […].
Experiment [18] relates to Mus musculus. Kind of experiment: Anti-fibrotic activity in CCl4-induced hepatic fibrosis C57BL/6 mouse model assessed as decrease in Timp-1 mRNA level in liver at 500 ug/kg, po administered daily for 2 weeks by qPCR analysis. Type of experiment: functional, organism-based. To be noted: […].
Experiment [19] concerns Mus musculus. Nature of the experiment: Anti-fibrotic activity in CCl4-induced hepatic fibrosis C57BL/6 mouse model assessed as increase in IL-10 level in liver at 500 ug/kg, po administered daily for 2 weeks by ELISA. Type of experiment: functional, organism-based. Conditions: […].
Experiment [20] has as its system Mus musculus. Kind of experiment: Anti-fibrotic activity in CCl4-induced hepatic fibrosis C57BL/6 mouse model assessed as reduction in alpha-SMA level in liver at 500 ug/kg, po administered daily for 2 weeks by immunofluorescence based analysis. Type of experiment: functional, organism-based. To be noted: […].
Experiment [21] concerns Mus musculus. Nature of the experiment: Anti-fibrotic activity in CCl4-induced hepatic fibrosis C57BL/6 mouse model assessed as decrease in Ctgf mRNA level in liver at 500 ug/kg, po administered daily for 2 weeks by qPCR analysis. To be noted: […]. The experiment is classed as functional, organism-based.

Calls of active or inactive are those of the source. The rule behind the calls is not given here.

The compound `CCCC(OC(=O)C1=C[C@@H](O)[C@@H](O)[C@H](O)C1)c1cccc(OCCCC(C)(C)O)c1` (stereo not given in full) had an Activity in [1] (filed as agonist) of 77%. In addition, the inhibition result in experiment [2], in experiment [3], in [4] and in [5] was “Active” in each case.
As to `CCC(OC(=O)C1=C[C@@H](O)[C@@H](O)[C@H](O)C1)c1cccc(OCCCC(C)(C)O)c1` (stereo not given in full), in experiment [1] (filed as agonist), the Activity was 84%. In addition, the inhibition result in experiment [2], in experiment [3], in experiment [4] and in [5] was “Active” throughout.
`O=C(COc1ccc(/C=C/C2=C[C@@H](O)[C@@H](O)[C@H](O)C2)c2c1CCCC2)c1ccccc1` displayed an Activity in [1] (filed as agonist) of 72%. Besides, the inhibition entry in [3] and in experiment [4] was “Active” in each case. In [6], the result was Active.
`CCn1cc(C(CC)(CC)c2ccc(OCC(O)CO)c(C)c2)cc1C(=O)NCC(C)(C)O` (stereo not given): the Activity in experiment [1] (filed as agonist) was determined as 57%. Further, the inhibition result in experiment [7] and in [8] was “inactive” throughout.
In turn, `CCC(O)(CC)c1ccc(-c2ccc(COC(=O)C3=C[C@@H](O)[C@@H](O)[C@H](O)C3)s2)c(C)c1` showed an Activity in experiment [1] (filed as agonist) of 60%. Further, the inhibition entry in experiment [2], in experiment [3], in [4] and in [5] was “Active” throughout. Moreover, the result in experiment [9] and in [6] was Active.
In experiment [1], `O=C(OC1CCCc2c(OCCCN3CCOCC3)cccc21)C1=C[C@@H](O)[C@@H](O)[C@H](O)C1` (stereo not given in full) gave an Activity of 50%. For the same compound, the inhibition entry in experiment [2], in experiment [3], in experiment [4] and in experiment [5] was “inactive” throughout.
On to `CCCC(O)(CCC)CCCOc1cccc2c1CCCC2OC(=O)C1=C[C@@H](O)[C@@H](O)[C@H](O)C1` (stereo not given in full), for which the Activity in experiment [1] (filed as agonist) was 77%. Also, the inhibition entry in [3] and in [4] was “Active” in each case. Further, the outcome in [9] and in experiment [6] was Active.
Consider `CCC(OC(=O)C1=C[C@@H](O)[C@@H](O)[C@H](O)C1)c1cccc(OCCCC(O)(CC)CC)c1` (stereo not given in full), for which the outcome in experiment [10], in experiment [11], in experiment [12], in [13], in experiment [14] and in experiment [15] was Active. Also, the outcome in [9], in experiment [6], in [16], in experiment [17], in experiment [18] and in experiment [19] was Active. In addition, the outcome in experiment [20] and in experiment [21] was Active. Moreover, the Activity in experiment [1] (filed as agonist) amounted to 84%. The inhibition entry in [2], in [3], in experiment [4] and in experiment [5] was “Active” throughout. Further, the inhibition entry in [7] and in experiment [8] was “inactive” in each case.
For `CCC(O)(CC)CCCn1ccc2c(/C=C/C3=C[C@@H](O)[C@@H](O)[C@H](O)C3)cccc21`, the Activity in experiment [1] (filed as agonist) was found to be 64%. Besides, the outcome in experiment [6] was Active.
In experiment [1], `OC(COc1ccc(/C=C/C2=C[C@@H](O)[C@@H](O)[C@H](O)C2)c2c1CCCC2)c1ccccc1` (stereo not given in full) yielded an Activity of 77%. Moreover, the inhibition entry in experiment [2], in [3], in [4] and in experiment [5] was “inactive” in each case.
The compound `C=C1/C(=C\C=C2/CCC[C@]3(C)[C@@H]([C@H](C)/C=C/[C@@H](O)C4CC4)CC[C@@H]23)C[C@@H](O)C[C@@H]1O` gave an Activity in [1] (filed as agonist) of 100%. Besides, the inhibition result in experiment [7] and in experiment [8] was “inactive” in each case.

These data come from ChEMBL document CHEMBL6153077, “Design, synthesis, and anti-liver fibrosis activity of novel non-steroidal vitamin D receptor agonists based on open-ring steroid scaffold” (Eur J Med Chem, 2025).
